From ChEMBL document CHEMBL1201862, “PubChem BioAssay data set” (2004)
Active and inactive are the calls of the source.

Tests used:
Cannabinoid receptor 1 [1] = molecular target: T1, Cannabinoid receptor 1 (Homo sapiens, UniProt P21554); test: SAR analysis of antagonists of the Cannabinoid Receptor 1 using an Image-Based Assay - Set 2. [Related pubchem assays (depositor defined):AID2013, AID2026]; type: functional
[2] = molecular target: T2, G-protein coupled receptor 35 (Homo sapiens, UniProt Q9HC97); test: SAR analysis of Agonists of the GPR35 Receptor using an Image-Based Assay - Set 2. [Related pubchem assays (depositor defined):AID2013, AID2026]; type: functional
T2 sequence (Q9HC97 whole entry): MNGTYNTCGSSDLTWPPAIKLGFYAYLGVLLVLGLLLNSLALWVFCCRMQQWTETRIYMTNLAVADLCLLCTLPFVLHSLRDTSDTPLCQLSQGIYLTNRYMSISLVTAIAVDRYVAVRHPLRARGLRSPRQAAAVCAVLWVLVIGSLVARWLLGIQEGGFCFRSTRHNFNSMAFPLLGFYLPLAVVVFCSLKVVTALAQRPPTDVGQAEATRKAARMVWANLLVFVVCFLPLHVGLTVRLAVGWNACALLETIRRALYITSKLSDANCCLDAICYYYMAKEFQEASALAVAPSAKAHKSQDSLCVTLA

Cannabinoid receptor 2 [3] = molecular target: T3, Cannabinoid receptor 2 (Homo sapiens, UniProt P34972); test: SAR analysis of antagonists of the Cannabinoid Receptor 2 using an Image-Based Assay. [Related pubchem assays (depositor defined):AID2013, AID2026]; type: functional
T3 sequence (P34972 whole entry): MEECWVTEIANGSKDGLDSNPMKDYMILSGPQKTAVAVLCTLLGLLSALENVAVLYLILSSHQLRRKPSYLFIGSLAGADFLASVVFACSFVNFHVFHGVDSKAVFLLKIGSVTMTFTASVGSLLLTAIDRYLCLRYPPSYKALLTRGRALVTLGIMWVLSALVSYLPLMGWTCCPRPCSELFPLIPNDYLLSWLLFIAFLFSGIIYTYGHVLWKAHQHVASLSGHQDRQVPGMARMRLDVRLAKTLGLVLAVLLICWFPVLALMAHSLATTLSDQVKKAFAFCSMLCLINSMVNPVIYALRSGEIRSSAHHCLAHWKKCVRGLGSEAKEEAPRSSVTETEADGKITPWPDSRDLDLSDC

Cannabinoid receptor 1 [4] = molecular target: T1, Cannabinoid receptor 1; test: SAR analysis of agonists of the Cannabinoid Receptor 1 using an Image-Based Assay - Set 2. [Related pubchem assays (depositor defined):AID2013, AID2026]; type: functional
[5] = molecular target: T2, G-protein coupled receptor 35; test: SAR analysis of Antagonists of the GPR35 Receptor using an Image-Based Assay - Set 3. [Related pubchem assays (depositor defined):AID2013, AID2026]; type: functional
[6] = molecular target: G-protein coupled receptor 55 (Homo sapiens, UniProt Q9Y2T6); test: GPR55 antagonist potency of analogs, SAR follow-up, imaging, U2OS, beta-arrestin-GFP, LPI agonist, set 2 (AID 2820); type: functional
Chain of G-protein coupled receptor 55 (Q9Y2T6 whole entry): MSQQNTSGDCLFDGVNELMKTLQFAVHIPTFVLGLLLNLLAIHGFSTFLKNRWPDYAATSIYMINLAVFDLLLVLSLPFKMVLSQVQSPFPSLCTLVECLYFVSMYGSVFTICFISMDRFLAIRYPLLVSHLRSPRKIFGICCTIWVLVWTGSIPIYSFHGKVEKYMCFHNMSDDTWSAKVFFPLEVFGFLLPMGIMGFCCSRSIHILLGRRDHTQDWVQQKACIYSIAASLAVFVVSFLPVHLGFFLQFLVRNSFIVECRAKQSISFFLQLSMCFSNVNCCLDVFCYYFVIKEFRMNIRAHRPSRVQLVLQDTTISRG

Cannabinoid receptor 2 [7] = molecular target: T3, Cannabinoid receptor 2; test: SAR analysis of agonists of the Cannabinoid Receptor 2 using an Image-Based Assay. [Related pubchem assays (depositor defined):AID2013, AID2026]; type: functional
Hexokinase HKDC1 = molecular target: T4, Hexokinase HKDC1 (Homo sapiens, UniProt Q2TB90); test: HKDC1 hexokinase activators, dose response, biochemical, W721R variant (AID 504730); type: functional
T4 sequence (Q2TB90 whole entry): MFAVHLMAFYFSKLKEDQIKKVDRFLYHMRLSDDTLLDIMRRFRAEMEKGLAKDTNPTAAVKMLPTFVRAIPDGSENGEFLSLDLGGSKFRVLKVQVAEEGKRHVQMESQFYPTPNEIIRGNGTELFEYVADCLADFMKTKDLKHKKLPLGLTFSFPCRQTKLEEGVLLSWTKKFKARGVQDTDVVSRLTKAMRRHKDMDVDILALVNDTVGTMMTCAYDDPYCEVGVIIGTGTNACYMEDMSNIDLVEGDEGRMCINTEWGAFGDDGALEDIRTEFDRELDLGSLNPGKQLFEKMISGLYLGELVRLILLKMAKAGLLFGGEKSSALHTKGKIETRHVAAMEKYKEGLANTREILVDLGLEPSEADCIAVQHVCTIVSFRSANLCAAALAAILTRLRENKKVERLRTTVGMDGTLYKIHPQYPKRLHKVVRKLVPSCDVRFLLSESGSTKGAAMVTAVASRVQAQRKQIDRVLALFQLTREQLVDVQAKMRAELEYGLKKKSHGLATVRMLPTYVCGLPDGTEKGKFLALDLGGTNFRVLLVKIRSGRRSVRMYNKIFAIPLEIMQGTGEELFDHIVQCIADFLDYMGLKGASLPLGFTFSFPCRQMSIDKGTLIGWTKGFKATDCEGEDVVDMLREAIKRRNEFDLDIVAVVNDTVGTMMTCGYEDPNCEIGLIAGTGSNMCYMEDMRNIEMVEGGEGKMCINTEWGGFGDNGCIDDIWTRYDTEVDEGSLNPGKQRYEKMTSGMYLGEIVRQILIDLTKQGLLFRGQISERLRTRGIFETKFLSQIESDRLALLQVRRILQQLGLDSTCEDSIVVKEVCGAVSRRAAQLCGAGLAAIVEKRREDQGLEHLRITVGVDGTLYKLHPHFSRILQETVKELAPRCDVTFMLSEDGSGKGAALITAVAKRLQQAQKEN

Hexokinase-1 = molecular target: T5, Hexokinase-1 (Homo sapiens, UniProt P19367); test: hexokinase 1 activators, dose response, selectivity assay for HKDC1 activator project, biochemical (AID 504762); type: functional
T5 sequence (P19367 whole entry): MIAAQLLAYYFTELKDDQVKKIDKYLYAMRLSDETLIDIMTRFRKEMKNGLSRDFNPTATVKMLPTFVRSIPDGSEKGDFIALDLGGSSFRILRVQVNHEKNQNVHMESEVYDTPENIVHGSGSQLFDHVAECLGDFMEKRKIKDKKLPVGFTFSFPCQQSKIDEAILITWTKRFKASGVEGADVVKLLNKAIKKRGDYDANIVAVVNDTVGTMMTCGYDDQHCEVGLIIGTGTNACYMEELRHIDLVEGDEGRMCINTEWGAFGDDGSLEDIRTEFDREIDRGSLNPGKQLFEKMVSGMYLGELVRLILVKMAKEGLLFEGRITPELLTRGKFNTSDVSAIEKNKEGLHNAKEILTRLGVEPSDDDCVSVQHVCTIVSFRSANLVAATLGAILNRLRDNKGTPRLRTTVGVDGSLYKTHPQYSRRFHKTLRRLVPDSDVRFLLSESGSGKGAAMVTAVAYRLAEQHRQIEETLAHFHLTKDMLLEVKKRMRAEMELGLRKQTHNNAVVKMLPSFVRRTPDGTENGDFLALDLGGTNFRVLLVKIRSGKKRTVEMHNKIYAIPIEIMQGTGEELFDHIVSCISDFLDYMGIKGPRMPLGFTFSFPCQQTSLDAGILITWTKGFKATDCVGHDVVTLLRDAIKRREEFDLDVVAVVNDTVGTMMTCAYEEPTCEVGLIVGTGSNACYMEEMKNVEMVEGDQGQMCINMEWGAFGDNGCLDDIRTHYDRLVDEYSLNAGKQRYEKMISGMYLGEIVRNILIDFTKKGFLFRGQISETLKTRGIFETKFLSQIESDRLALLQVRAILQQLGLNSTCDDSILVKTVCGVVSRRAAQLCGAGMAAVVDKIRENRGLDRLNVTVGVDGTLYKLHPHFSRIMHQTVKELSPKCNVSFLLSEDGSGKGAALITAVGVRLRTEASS

[8] = molecular target: Histone-lysine N-methyltransferase NSD2 (Homo sapiens, UniProt O96028); type: biochemical
Chain of Histone-lysine N-methyltransferase NSD2 (O96028 whole entry): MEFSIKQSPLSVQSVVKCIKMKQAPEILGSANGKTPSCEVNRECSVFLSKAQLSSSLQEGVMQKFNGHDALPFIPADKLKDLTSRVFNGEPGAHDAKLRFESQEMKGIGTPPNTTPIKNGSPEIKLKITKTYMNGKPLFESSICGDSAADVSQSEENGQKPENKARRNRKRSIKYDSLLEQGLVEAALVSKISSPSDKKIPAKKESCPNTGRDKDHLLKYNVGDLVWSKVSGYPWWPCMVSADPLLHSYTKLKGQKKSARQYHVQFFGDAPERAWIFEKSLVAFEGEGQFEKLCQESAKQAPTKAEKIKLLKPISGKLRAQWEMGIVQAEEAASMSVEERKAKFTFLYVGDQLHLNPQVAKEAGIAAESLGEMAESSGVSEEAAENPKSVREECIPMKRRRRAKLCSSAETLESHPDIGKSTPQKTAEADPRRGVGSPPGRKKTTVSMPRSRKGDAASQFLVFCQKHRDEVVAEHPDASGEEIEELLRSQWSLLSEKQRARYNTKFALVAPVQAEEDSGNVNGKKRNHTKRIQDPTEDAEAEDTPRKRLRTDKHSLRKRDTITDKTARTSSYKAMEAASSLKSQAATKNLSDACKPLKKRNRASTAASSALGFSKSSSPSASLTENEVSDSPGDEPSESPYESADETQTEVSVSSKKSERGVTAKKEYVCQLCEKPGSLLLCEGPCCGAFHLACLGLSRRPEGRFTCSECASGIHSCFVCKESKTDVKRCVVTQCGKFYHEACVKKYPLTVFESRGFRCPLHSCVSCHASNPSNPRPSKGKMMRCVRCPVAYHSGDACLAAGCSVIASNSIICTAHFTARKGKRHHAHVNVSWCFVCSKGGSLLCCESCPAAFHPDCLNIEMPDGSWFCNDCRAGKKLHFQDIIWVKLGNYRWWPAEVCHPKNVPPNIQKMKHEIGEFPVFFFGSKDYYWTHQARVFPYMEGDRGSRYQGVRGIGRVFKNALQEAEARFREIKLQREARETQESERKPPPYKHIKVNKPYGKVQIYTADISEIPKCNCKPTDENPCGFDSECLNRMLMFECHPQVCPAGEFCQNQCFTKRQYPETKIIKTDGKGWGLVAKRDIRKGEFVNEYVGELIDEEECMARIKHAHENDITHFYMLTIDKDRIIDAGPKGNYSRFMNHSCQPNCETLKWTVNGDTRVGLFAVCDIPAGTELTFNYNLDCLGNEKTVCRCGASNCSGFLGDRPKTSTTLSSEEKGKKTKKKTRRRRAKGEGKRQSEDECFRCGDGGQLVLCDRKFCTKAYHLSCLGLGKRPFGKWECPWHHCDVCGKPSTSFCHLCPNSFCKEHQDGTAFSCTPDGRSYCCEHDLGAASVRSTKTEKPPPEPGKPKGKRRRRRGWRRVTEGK

Escherichia coli = test: microbe, parasite or virus in culture

T1 sequence (P21554 whole entry): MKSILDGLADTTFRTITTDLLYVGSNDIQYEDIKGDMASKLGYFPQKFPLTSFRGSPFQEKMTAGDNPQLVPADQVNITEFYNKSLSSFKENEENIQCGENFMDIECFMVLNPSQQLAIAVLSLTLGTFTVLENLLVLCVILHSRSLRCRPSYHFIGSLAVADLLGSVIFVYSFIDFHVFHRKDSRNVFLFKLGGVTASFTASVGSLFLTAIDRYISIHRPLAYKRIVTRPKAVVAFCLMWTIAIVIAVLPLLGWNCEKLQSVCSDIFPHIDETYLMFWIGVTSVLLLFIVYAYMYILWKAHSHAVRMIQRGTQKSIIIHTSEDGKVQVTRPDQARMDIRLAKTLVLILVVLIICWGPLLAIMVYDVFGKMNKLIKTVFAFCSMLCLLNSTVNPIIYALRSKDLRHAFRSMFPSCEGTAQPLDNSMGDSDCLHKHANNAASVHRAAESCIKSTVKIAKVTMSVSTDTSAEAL

**Q.** Which IC50 (Cannabinoid receptor 1 [1]) does the source give for `COc1ccc(CNCCC(c2ccccc2)c2ccc3c(c2)OCO3)cc1` (stereo unspecified) here?
**A.** Its IC50 is 5.82 µM (active).

**Q.** And the EC50 [2]?
**A.** The EC50 was > 32 µM (inactive).

**Q.** And the IC50 (Cannabinoid receptor 2 [3])?
**A.** The IC50 was > 32 µM (inactive).

**Q.** What about the EC50 (Cannabinoid receptor 1 [4]) of the same compound?
**A.** The EC50 was > 32 µM (inactive).

**Q.** And the IC50 [5]?
**A.** The IC50 was > 32 µM (inactive).

**Q.** And the IC50 [6]?
**A.** The IC50 was 0.917 µM (active).

**Q.** And the EC50 (Cannabinoid receptor 2 [7])?
**A.** Its EC50 is > 32 µM (inactive).

**Q.** Which results are given for `CC(=O)Oc1cccc2c1C(=O)C1CC=CC(OC(C)=O)C1C2=O` (stereo unspecified)?
**A.** EC50 (Hexokinase HKDC1): 51.6 µM (inactive); EC50 (Hexokinase-1): 34.1 µM (inactive); AC50 [8]: 10.4 µM (active)

**Q.** `O=S(=O)(c1ccc2nc(O)sc2c1)N1CCCCC1` was tested. Which AC50 (Escherichia coli) did it give?
**A.** The AC50 was > 150 µM (inactive).
